Reference: patent US20230203041A1, “ANTAGONISTS OF THE ADENOSINE A2A RECEPTOR” (AdoRx Therapeutics Limited, priority 2020, published 2023)

What was measured:
[1] = biological target: T1, human Adenosine A2b receptor (Homo sapiens, UniProt P29275); experiment: Adenosine receptor TR-FRET binding assay (CA200645 displacement), A2b; settings: 30 nM CA200645, CHO cell membranes, 2 hours at room temperature
T1 construct: expressed in transfected cells; host or cells: CHO cell membranes
T1 sequence (P29275 1-332): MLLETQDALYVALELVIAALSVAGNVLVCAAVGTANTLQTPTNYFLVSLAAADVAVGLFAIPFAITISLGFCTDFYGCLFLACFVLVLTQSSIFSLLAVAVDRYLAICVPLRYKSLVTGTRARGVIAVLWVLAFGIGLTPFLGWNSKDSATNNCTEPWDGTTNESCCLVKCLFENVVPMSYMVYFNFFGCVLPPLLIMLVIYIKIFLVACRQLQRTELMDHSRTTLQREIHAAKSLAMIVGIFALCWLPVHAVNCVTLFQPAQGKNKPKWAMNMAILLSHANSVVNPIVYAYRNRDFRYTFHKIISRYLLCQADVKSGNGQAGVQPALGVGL

human PBMCs = experiment: CD3/CD28 stimulated IL-2 release NECA reversal assay in human PBMCs; type: cell-based; settings: PBMC, CD3/CD28 antibody stimulated, 1 uM NECA, 24 hours, IL-2 in culture supernatant;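 also: dose-response as % inhibition where 100% equals no-NECA control wells with CD3/CD28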
Procedure: Blood is drawn from healthy volunteers using sodium citrate as the anticoagulant (0.3% final concentration). After centrifugation of the blood over Histopaque-1077, PBMCs are collected from the Histopaque/plasma interface and washed twice in PBS (300 g for 10 mins at room temp). Cells are plated at 50,000 cells/well in 150 μl RPMI/10% FCS in 96-well cell culture plates that have been precoated with 1 ug/ml CD3 antibody. 50 μl diluted compound mix is added to the cells, to obtain final concentrations of 1 ug/ml CD28 antibody, 1 uM NECA and 0.003-10 μM adenosine receptor antagonist. Assay plates are incubated for 24 hours at 37° C. in a humidified incubator. Culture supernatant is tested for IL-2 levels using the human IL-2 Tissue Culture Kit (Meso Scale Discovery).

[2] = biological target: T2, human Adenosine A2a receptor (Homo sapiens, UniProt P29274); experiment: Adenosine receptor TR-FRET binding assay (CA200645 displacement), A2a; settings: 100 nM CA200645, CHO cell membranes, 2 hours at room temperature
T2 construct: expressed in transfected cells; host or cells: CHO cell membranes
T2 sequence (P29274 whole entry): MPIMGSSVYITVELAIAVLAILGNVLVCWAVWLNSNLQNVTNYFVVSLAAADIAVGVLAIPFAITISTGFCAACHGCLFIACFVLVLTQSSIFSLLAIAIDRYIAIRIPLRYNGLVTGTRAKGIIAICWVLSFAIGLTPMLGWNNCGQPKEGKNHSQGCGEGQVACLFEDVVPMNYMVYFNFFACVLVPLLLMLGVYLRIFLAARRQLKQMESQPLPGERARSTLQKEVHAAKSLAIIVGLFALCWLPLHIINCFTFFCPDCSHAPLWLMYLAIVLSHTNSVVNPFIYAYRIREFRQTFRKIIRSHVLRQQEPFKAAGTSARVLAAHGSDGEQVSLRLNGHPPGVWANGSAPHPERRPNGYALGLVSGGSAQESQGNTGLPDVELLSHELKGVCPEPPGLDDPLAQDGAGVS

[3] = system: CD8+ T cells in human whole blood; experiment: Measurement of pCREB in CD8+ T cells in human whole blood; type: cell-based; settings: T-cell, 1 h; heparinised human whole blood, rolipram, 3 μM NECA, 60 min, phospho-CREB in CD8+ T cells by FACS
Procedure: Heparinised human whole blood was pre-incubated at 37° C. with serial dilutions of A2a antagonists for 20 min. and the phosphodiesterase inhibitor rolipram to amplify the pCREB response. The adenosine receptor agonist NECA is then added at a final concentration of 3 μM and following a 60 min incubation the blood is fixed and red blood cells lysed. White blood cells are isolated, permeabilized and stained with directly conjugated fluorescent antibodies to phospho-CREB (Alexa Fluor 488) and CD8 (Alexa Fluor 647) and the level of phospho-CREB in CD8+ T cells is measured by FACS using a BD Accuri C6 Flow Cytometer.

[4] = biological target: T3, human Adenosine A1 receptor (Homo sapiens, UniProt P30542); experiment: Adenosine receptor TR-FRET binding assay (CA200645 displacement), A1
T3 sequence (P30542 1-326): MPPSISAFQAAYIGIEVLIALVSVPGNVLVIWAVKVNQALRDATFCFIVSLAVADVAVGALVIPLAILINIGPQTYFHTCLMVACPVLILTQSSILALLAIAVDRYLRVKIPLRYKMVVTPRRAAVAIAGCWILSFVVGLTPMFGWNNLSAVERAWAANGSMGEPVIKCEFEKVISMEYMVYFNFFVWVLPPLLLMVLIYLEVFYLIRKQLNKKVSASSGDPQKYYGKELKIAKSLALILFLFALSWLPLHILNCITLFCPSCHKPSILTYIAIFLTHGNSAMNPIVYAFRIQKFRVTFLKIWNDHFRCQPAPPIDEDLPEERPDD
Procedure: All FRET binding experiments were conducted at room temperature in white 384-well plates, in assay binding buffer containing 1×LabMed (Cisbio, France), 100 μg/mL saponin, 1% DMSO and 0.02% pluronic acid. Binding of the fluorescently labelled Adenosine receptor antagonist XAC (CA200645, FRET acceptor) to terbium-labelled A1, A2a, A2b and A3 adenosine receptors (FRET donors) was detected by time-resolved FRET due to the close proximity of the donor and acceptor in a binding event. To investigate the ability of unlabelled test compounds to bind to Adenosine A1, A2a, A2b and A3 receptors, dose response curves were constructed that determined the ability of a range of concentrations to inhibit the binding of 30 nM CA200645 to the A2b receptor and 100 nM CA200645 to the A1, A2a, and A3 receptor.
Serial dilution (1:3 dilutions) of test compounds in neat DMSO and transfer of a 400 nL sample of test compound into the assay plate was carried out using the Mosquito (TTP Labtech, UK). The compound samples were incubated for 2 hours at room temperature with a fixed concentration of CA200645 defined for each receptor (see above) and CHO cell membranes containing the human Adenosine A1 (0.5 μg/well), A2a (0.3 μg/well), A2b (1 μg/well) or A3 (1 μg/well) receptor in 40 μL of assay buffer. Total and non-specific binding of CA200645 was determined in the absence and presence of 10 μM XAC, respectively. Following 2 hours incubation, the level of CA200645 binding was detected on a Pherastar FSX (BMG Labtech, Germany) using standard TR-FRET settings. The terbium donor was excited with three laser flashes at a wavelength of 337 nm, and donor and acceptor emission was detected at 620 nm and 665 nm wavelengths, respectively. FRET ratios were obtained by multiplying the acceptor/donor ratio value by 10,000. Specific binding was determined by subtracting the non-specific binding FRET ratio from the total binding FRET ratio. Compound IC50 curves were analysed using GraphPad Prism 7.0 (GraphPad, USA) and Ki affinity values were determined from the obtained IC50 values using the method of Cheng and Prusoff.

[5] = biological target: T4, human Adenosine A3 receptor (Homo sapiens, UniProt P0DMS8); experiment: Adenosine receptor TR-FRET binding assay (CA200645 displacement), A3
T4 sequence (P0DMS8 1-318): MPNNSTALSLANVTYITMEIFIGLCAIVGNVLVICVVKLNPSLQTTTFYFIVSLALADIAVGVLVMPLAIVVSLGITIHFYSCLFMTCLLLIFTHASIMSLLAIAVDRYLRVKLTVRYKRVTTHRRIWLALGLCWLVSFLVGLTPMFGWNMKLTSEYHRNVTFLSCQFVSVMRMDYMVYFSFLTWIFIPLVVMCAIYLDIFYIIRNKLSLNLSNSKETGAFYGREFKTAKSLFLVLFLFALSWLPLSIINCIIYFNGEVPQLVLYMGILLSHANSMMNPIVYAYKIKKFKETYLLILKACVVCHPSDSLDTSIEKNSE

Compound | Ki [1] | IC50 (human PBMCs) | Ki [2] | IC50 [3] | Ki [4] | Ki [5]
N#Cc1cccc(-c2nn3ccc(N)nc3c2-c2ccncc2)c1 [Example 1, 3-[5-Amino-3-(4-pyridyl)pyrazolo[1,5-a]pyrimidin-2-yl]benzonitrile] | 2 nM | 305 nM | 2.1 nM | 2010 nM | 3 nM | 
Cc1cc(-c2c(-c3cccc(C#N)c3)nn3ccc(N)nc23)cc(Cl)n1 [Example 1.4, 3-[5-Amino-3-(2-chloro-6-methyl-4-pyridyl)pyrazolo[1,5-a]pyrimidin-2-yl]benzonitrile] | 4 nM | 37 nM | 2.6 nM | 590 nM | 66 nM | > 1000 nM
Cc1cc(-c2c(-c3cccc(C#N)c3)nn3ccc(N)nc23)cc(C)n1 [Example 1.6, 3-[5-amino-3-(2,6-dimethyl-4-pyridyl)pyrazolo[1,5-a]pyrimidin-2-yl]benzonitrile] | 9 nM | 57 nM | 2.2 nM | 250 nM | 37 nM | > 1000 nM
Cc1cc(-c2c(-c3cccc(C#N)c3)nn3ccc(NCC(C)(C)O)nc23)cc(Cl)n1 [Example 2, 3-[3-(2-Chloro-6-methyl-4-pyridyl)-5-[(2-hydroxy-2-methyl-propyl)amino]pyrazolo[1,5-a]pyrimidin-2-yl]benzonitrile] | 67 nM | 84 nM | 3.9 nM | 420 nM | 366 nM | > 1000 nM
Cc1cc(-c2c(-c3cccc(C#N)c3)nn3ccc(NC45CC(O)(C4)C5)nc23)cc(Cl)n1 [Example 2.1] | 3 nM | 12 nM | 0.4 nM | 1440 nM | 21 nM | > 1000 nM
Cc1cc(-c2c(-c3cccc(C#N)c3)nn3ccc(N4CCOC[C@H]4C(=O)O)nc23)cc(Cl)n1 [Example 2.3] | 4 nM | 12 nM | 0.6 nM | 1250 nM | 21 nM | 1280 nM
CCN1CCC(Nc2ccn3nc(-c4cccc(C#N)c4)c(-c4cc(C)nc(Cl)c4)c3n2)CC1 [Example 2.4] | 2 nM | 32 nM | 0.7 nM | 2820 nM | 53 nM | > 1000 nM
Cc1cc(-c2c(-c3cccc(C#N)c3)nn3ccc(N4CCO[C@@H](C(=O)O)C4)nc23)cc(Cl)n1 [Example 2.24] | 58 nM | 92 nM | 6.9 nM | 2760 nM | 255 nM | 
Cc1cc(-c2c(-c3cccc(C#N)c3)nn3ccc(N[C@H](C)CO)nc23)cc(Cl)n1 [Example 3.3] | 2 nM | 1 nM | 0.3 nM | 210 nM |  | > 1000 nM
COCC(C)(C#N)NC(=O)c1ccn2nc(-c3cccc(C#N)c3)c(-c3cc(C)nc(Cl)c3)c2n1 (stereo not drawn) [Example 6.11, 3-(2-Chloro-6-methyl-4-pyridyl)-N-(1-cyano-2-methoxy-1-methyl-ethyl)-2-(3-cyanophenyl)pyrazolo[1,5-a]pyrimidine-5-carboxamide] | 3 nM |  | 0.1 nM | 20 nM | 32 nM | 379 nM
N#Cc1c(-c2ccco2)nn2ccc(N3CCN(Cc4c(F)cc(F)cc4F)CC3)nc12 [Example 51.1, 2-(2-Furyl)-5-[4-[(2,4,6-trifluorophenyl)methyl]piperazin-1-yl]pyrazolo [1,5-a]pyrimidine-3-carbonitrile] | 1420 nM | 16 nM | 26.5 nM |  | 322 nM | > 1000 nM
Cc1ccc(-c2nn3ccc(NCc4ccccc4)nc3c2C#N)o1 [Example 64, 5-(benzylamino)-2-(5-methyl-2-furyl)pyrazolo[1,5-a]pyrimidine-3-carbonitrile] | 508 nM | 146 nM | 7.5 nM |  | 16 nM | 41 nM
Fc1cccc(-c2cc3nc(NCc4ccccc4)ccn3n2)c1 [Example 66, N-benzyl-2-(3-fluorophenyl)pyrazolo[1,5-a]pyrimidin-5-amine] | 384 nM | 869 nM | 44.7 nM |  | 59 nM | > 1000 nM
N#Cc1c(-c2cccc(F)c2)nn2ccc(N)nc12 [Example 72, 5-Amino-2-(3-fluorophenyl)pyrazolo[1,5-a]pyrimidine-3-carbonitrile] | 116 nM | 565 nM | 30.9 nM |  | 0.3 nM | 92 nM
Cc1cc(-c2c(-c3cccc(C#N)c3)nn3ccc(C(=O)NC(C)(C)C)nc23)cc(N)n1 [Example 91, 3-(2-Amino-6-methyl-4-pyridyl)-N-tert-butyl-2-(3-cyanophenyl)pyrazolo [1,5-a]pyrimidine-5-carboxamide] | 71 nM |  | 0.2 nM | 340 nM | 102 nM | 1040 nM
Cc1cc(-c2c(-c3cccc(C#N)c3)nn3ccc(C(=O)N[C@H](C)C(C)(C)O)nc23)cc(C)n1 [Example 92.10] | 117 nM |  | 0.5 nM | 150 nM | 591 nM | > 1000 nM
Cc1cc(-c2c(-c3cccc(C#N)c3)nn3ccc(C(=O)NOCC(C)(C)O)nc23)cc(C)n1 [Example 92.11] | 21 nM |  | 1.5 nM | 2100 nM | 217 nM | > 1000 nM
Cc1cc(-c2c(-c3cccc(C#N)c3)nn3ccc(C(=O)N[C@@H]4COC[C@]4(C)O)nc23)cc(C)n1 [Example 92.12] | 44 nM |  | 0.8 nM | 150 nM | 274 nM | > 1000 nM
Cc1cc(-c2c(-c3cccc(C#N)c3)nn3ccc(C(=O)N[C@@H]4COC[C@@]4(C)O)nc23)cc(C)n1 [Example 92.13] | 101 nM |  | 1 nM | 100 nM | 282 nM | > 1000 nM
Cc1cc(-c2c(-c3cccc(C#N)c3)nn3ccc(C(=O)NCC4CCCN(C)C4=O)nc23)cc(C)n1 (stereo not drawn) [Example 92.14] | 10 nM |  | 0.4 nM | 60 nM | 79 nM | > 1000 nM
Cc1cc(-c2c(-c3cccc(C#N)c3)nn3ccc(C(=O)NCC4(C)COC(=O)N4)nc23)cc(C)n1 (stereo not drawn) [Example 92.21] | 17 nM |  | 0.7 nM | 110 nM | 288 nM | > 1000 nM
Cc1cc(-c2c(-c3cccc(C#N)c3)nn3ccc(C(=O)N[C@H]4CC[C@](C)(O)CC4)nc23)cc(C)n1 [Example 92.22] | 29 nM |  | 0.6 nM | 370 nM | 204 nM | > 1000 nM
Cc1cc(-c2c(-c3cccc(C#N)c3)nn3ccc(C(=O)N[C@H]4C[C@@](C)(O)C4)nc23)cc(C)n1 [Example 92.24] | 23 nM |  | 1.3 nM | 330 nM | 347 nM | > 1000 nM
Cc1cc(-c2c(-c3cccc(C#N)c3)nn3ccc(C(=O)N[C@H]4CN(C)C[C@H]4O)nc23)cc(C)n1 [Example 92.34] | 32 nM |  | 1.5 nM | 140 nM | 428 nM | > 1000 nM
